Laboratory results from patent publication US7790761B2, “Blockade of voltage dependent sodium channels” (University College London, priority 2000, dated 2010).
Several values for one entry are separate records, joined by “and”; a condition that tells them apart may be missing. Equal entries are not always repeated.

Columns and labels:
optic nerve = test: tissue or blood; format: cell-based; conditions: Rattus norvegicus; 30 μM of each drug; OGD 1 h; cGMP accumulation; compared with protection achieved by TTX; read-out: % protection accorded
sodium channels = test: [14C]-labelled guanidine flux through sodium channels; format: biochemical, rat; conditions: inhibition of flux of [14C]-labelled guanidine through sodium channels

| SMILES | inhibition at 30 µM (optic nerve) | IC50 (sodium channels) |
| --- | --- | --- |
| Cc1cccc(NC(=O)c2cc(C)n(Cc3c(Cl)cccc3Cl)n2)c1 [1-(2,6-Dichloro-benzyl)-5-methyl-1H-pyrazole-3-carboxylic acid m-tolylamide] | 29% | 7 µM |
| Cc1cc(C(=O)Nc2ccc(C(C)(C)C)cc2)nn1C(C)(C)C [1-tert-Butyl-5-methyl-1H-pyrazole-3-carboxylic acid (4-tert-butyl-phenyl)-amide] | 39% | 6 µM |
| CC(C)(C)c1cc(C(=O)NNC(=O)Nc2cccc(Cl)c2)n(Cc2ccccc2)n1 [2-Benzyl-5-tert-butyl-2H-pyrazole-3-carboxylic acid N′-(3-chlorophenylcarbamoyl) hydrazide] | 12% | 5.8 µM |
| Cc1ccc(NC(=O)c2cc(C(C)(C)C)nn2Cc2ccccc2)cc1 [2-Benzyl-5-tert-butyl-2H-pyrazole-3-carboxylic acid p-tolylamide] | 66% | 2 µM |
| Cn1c(SCC(=O)c2ccc(Cl)cc2)nnc1-c1cc(C(C)(C)C)nn1Cc1ccc(F)cc1 [2-{5-[5-tert-Butyl-2-(4-fluoro-benzyl)-2H-pyrazol-3-yl]-4-methyl-4H-[1,2,4]triazol-3-ylsulfanyl}-1-(4-chloro-phenyl)-ethanone] | 19% | 4.6 µM |
| Cn1c(SCC(=O)c2ccccc2)nnc1-c1cc(C(C)(C)C)nn1Cc1ccc(F)cc1 [2-{5-[5-tert-Butyl-2-(4-fluoro-benzyl)-2H-pyrazol-3-yl]-4-methyl-4H-[1,2,4]triazol-3-ylsulfanyl}-1-phenyl-ethanone] | 18% | 19.5 µM |
| Cn1c(SCc2ccccc2)nnc1-c1cc(C(C)(C)C)nn1Cc1ccc(F)cc1 [3-Benzylsulfanyl-5-[5-tert-butyl-2-(4-fluoro-benzyl)-2H-pyrazol-3-yl]-4-methyl-4H-[1,2,4]triazole] | 72% | 12 µM and 12.3 µM |
| CC(C)(C)c1cc(C(=O)Nc2ccc(Cl)cc2)n(Cc2ccc(Cl)cc2Cl)n1 [Example 14, (S)-5-tert-Butyl-2-(2,4-dichloro-benzyl)-2H-pyrazole-3-carboxylic acid (4-chloro-phenyl)-amide] | – | 29 µM |
| CC(C)(C)c1cc(C(=O)NCCc2ccccc2)n(Cc2ccc(Cl)cc2Cl)n1 [Example 15, 5-tert-Butyl-2-(2,4-dichloro-benzyl)-2H-pyrazole-3-carboxylic acid phenethyl-amide] | – | 10 µM |
| CCn1nc(-c2cccs2)cc1C(=O)NCCc1ccccc1 [Example 16, (S)-2-Ethyl-5-thiophen-2-yl-2H-pyrazole-3-carboxylic acid phenethyl-amide] | – | 13 µM |
| CC(C)(C)c1cc(C(=O)Nc2ccccc2)n(Cc2ccc(Cl)cc2Cl)n1 [Example 17, 5-tert-Butyl-2-(2,4-dichloro-benzyl)-2H-pyrazole-3-carboxylic acid phenylamide] | – | 10 µM |
| CC(C)(C)c1cc(C(=O)NCc2ccccc2)n(Cc2ccc(Cl)cc2Cl)n1 [Example 18, 5-tert-Butyl-2-(2,4-dichloro-benzyl)-2H-pyrazole-3-carboxylic acid benzylamide] | – | 9 µM |
| CN(C)c1ccc(NC(=O)c2cc(-c3ccccc3)n(-c3ccc(Cl)cc3)n2)cc1 [Example 19, 1-(4-Chloro-phenyl)-5-phenyl-1H-pyrazole-3-carboxylic acid (4-dimethylamino-phenyl)-amide] | – | 5 µM |
| CC(C)(C)c1ccc(NC(=O)c2cc(-c3ccccc3)n(-c3ccc(Cl)cc3)n2)cc1 [Example 20, 1-(4-Chloro-phenyl)-5-phenyl-1H-pyrazole-3-carboxylic acid (4-tert-butyl-phenyl)-amide] | – | 20 µM |
| Cc1cc(C(=O)Nc2ccc(C(C)(C)C)cc2)n(C(C)(C)C)n1 [Example 21, 2-tert-Butyl-5-methyl-2H-pyrazole-3-carboxylic acid (4-tert-butyl-phenyl)-amide] | – | < 9 µM |
| Cc1cc(C(=O)Nc2ccc(Cl)c(Cl)c2)n(C(C)(C)C)n1 [Example 22, 2-tert-Butyl-5-methyl-2H-pyrazole-3-carboxylic acid (3,4-dichloro-phenyl)-amide] | – | < 9 µM |
| Cn1nc(C(C)(C)C)cc1C(=O)Nc1ccc(Cl)c(Cl)c1 [Example 23, 5-tert-Butyl-2-methyl-2H-pyrazole-3-carboxylic acid (3,4-dichloro-phenyl)-amide] | – | < 9 µM |
| CC(C)(C)c1cc(C(=O)Nc2ccc(Cl)c(Cl)c2)n(Cc2ccccc2)n1 [Example 24, 2-Benzyl-5-tert-butyl-2H-pyrazole-3-carboxylic acid (3,4-dichloro-phenyl)-amide] | – | < 9 µM |
| CC(C)(C)c1ccc(NC(=O)c2cc(C(C)(C)C)nn2Cc2ccccc2)cc1 [Example 25, 2-Benzyl-5-tert-butyl-2H-pyrazole-3-carboxylic acid (4-tert-butyl-phenyl)-amide] | – | 18 µM |
| CN(C)c1ccc(NC(=O)c2cc(C(C)(C)C)nn2Cc2ccccc2)cc1 [Example 27, 2-Benzyl-5-tert-butyl-2H-pyrazole-3-carboxylic acid (4-dimethylamino-phenyl)-amide] | – | < 9 µM |
| CC(C)(C)c1cc(C(=O)Nc2cccc(-c3cnco3)c2)n(Cc2ccccc2)n1 [Example 28, 2-Benzyl-5-tert-butyl-2H-pyrazole-3-carboxylic acid (3-oxazol-5-yl-phenyl)-amide] | – | < 9 µM |

| SMILES | inhibition at 30 µM (optic nerve) | IC50 (sodium channels) |
| --- | --- | --- |
| Cn1nc(C(C)(C)C)cc1C(=O)Nc1cccc(-c2cnco2)c1 [Example 29, 5-tert-Butyl-2-methyl-2H-pyrazole-3-carboxylic acid (3-oxazol-5-yl-phenyl)-amide] | – | 9 µM |
| CC(C)(C)c1cc(NC(=O)c2cc(-c3ccccc3)n(-c3ccc(Cl)cc3)n2)no1 [Example 30, 1-(4-Chloro-phenyl)-5-phenyl-1H-pyrazole-3-carboxylic acid (5-tert-butyl-isoxazol-3-yl)-amide] | – | 15 µM |
| Cc1cc(C(=O)Nc2ccc(C(=O)Nc3ccccc3)cc2)n(C(C)(C)C)n1 [Example 31, 2-tert-Butyl-5-methyl-2H-pyrazole-3-carboxylic acid (4-phenylcarbamoyl-phenyl)-amide] | – | 22 µM |
| CC(C)(C)c1cc(C(=O)Nc2cccc(C(=O)Nc3ccccc3)c2)n(Cc2ccccc2)n1 [Example 32, 2-Benzyl-5-tert-butyl-2H-pyrazole-3-carboxylic acid (3-phenylcarbamoyl-phenyl)-amide] | – | 22 µM |
| Cn1nc(C(C)(C)C)cc1C(=O)Nc1cccc(C(=O)Nc2ccccc2)c1 [Example 33, 5-tert-Butyl-2-methyl-2H-pyrazole-3-carboxylic acid (3-phenylcarbamoyl-phenyl)-amide] | – | 22 µM |
| CC(C)(C)c1cc(C(=O)Nc2ccc(Cl)nc2)n(Cc2ccccc2)n1 [Example 34, 2-Benzyl-5-tert-butyl-2H-pyrazole-3-carboxylic acid (6-chloro-pyridin-3-yl)-amide] | – | < 9 µM |
| Cc1cc(C(=O)Nc2ccc(Cl)nc2)nn1C(C)(C)C [Example 35, 1-tert-Butyl-5-methyl-1H-pyrazole-3-carboxylic acid (6-chloro-pyridin-3-yl)-amide] | – | 5 µM |
| CC(=O)Nc1ccc(NC(=O)c2cc(C)n(C(C)(C)C)n2)cc1 [Example 36, 1-tert-Butyl-5-methyl-1H-pyrazole-3-carboxylic acid (4-acetylamino-phenyl)-amide] | – | 23 µM |
| Cc1cc(C(=O)Nc2ncccc2OCc2ccccc2)nn1C(C)(C)C [Example 37, 1-tert-Butyl-5-methyl-1H-pyrazole-3-carboxylic acid (3-benzyloxy-pyridin-2-yl)-amide] | – | < 9 µM |
| CC(=O)Nc1ccc(NC(=O)c2cc(C)n(Cc3ccc(C)cc3)n2)cc1 [Example 38, 5-Methyl-1-(4-methyl-benzyl)-1H-pyrazole-3-carboxylic acid (4-acetylamino-phenyl)-amide] | – | 14 µM |
| CC(=O)Nc1ccc(NC(=O)c2cc(C(C)(C)C)nn2Cc2ccc(Cl)cc2Cl)cc1 [Example 39, 5-tert-Butyl-2-(2,4-dichloro-benzyl)-2H-pyrazole-3-carboxylic acid (4-acetylamino-phenyl)-amide] | – | 24 µM |
| CCn1nc(-c2cccs2)cc1C(=O)Nc1ccc(NC(C)=O)cc1 [Example 40, 2-Ethyl-5-thiophen-2-yl-2H-pyrazole-3-carboxylic acid (4-acetylamino-phenyl)-amide] | – | < 9 µM |
| CC(C)(C)c1cc(C(=O)Nc2nc(-c3cccnc3)cs2)n(Cc2ccc(Cl)cc2Cl)n1 [Example 41, 5-tert-Butyl-2-(2,4-dichloro-benzyl)-2H-pyrazole-3-carboxylic acid (4-(pyridin-3-yl)thiazol-2-yl)-amide] | – | 14 µM |
| CCn1nc(-c2cccs2)cc1C(=O)Nc1nc(-c2cccnc2)cs1 [Example 42, 2-Ethyl-5-thiophen-2-yl-2H-pyrazole-3-carboxylic acid (4-(pyridin-3-yl)thiazol-2-yl)-amide] | – | < 9 µM |
| CC(=O)Nc1ccc(NC(=O)c2cc(C(C)(C)C)nn2Cc2ccccc2)cc1 [Example 43, 2-Benzyl-5-tert-butyl-2H-pyrazole-3-carboxylic acid (4-acetylamino-phenyl)-amide] | – | 16 µM |
| Cn1nc(C(C)(C)C)cc1C(=O)Nc1nc(-c2cccnc2)cs1 [Example 44, 5-tert-Butyl-2-methyl-2H-pyrazole-3-carboxylic acid (4-(pyridin-3-yl)thiazol-2-yl)-amide] | – | < 9 µM |
| COc1ccc(Cc2noc(NC(=O)c3cc(C(C)(C)C)nn3C)n2)cc1 [Example 45, 5-tert-Butyl-2-methyl-2H-pyrazole-3-carboxylic acid [3-(4-methoxy-benzyl)-[1,2,4]oxadiazol-5-yl]-amide] | – | 19 µM |
| CCNCCCCc1nn(Cc2ccccc2)c2ccccc12 [Example 46, [N-Ethyl-(4-Aminobutyl)]-1-benzylindazole] | – | 15.5 µM |
| CN(C)CCNC(=O)c1nn(Cc2ccccc2)c2ccccc12 [Example 47, 1-Benzyl-3-[N-(2-N,N-dimethylaminoethyl)carboxamido]indazole] | – | 63 µM |
| NCc1noc(-c2nn(Cc3ccccc3)c3ccccc23)n1 [Example 51, 1-Benzyl-3-[3-aminomethyl-1,2,4-oxadiazol-yl]indazole] | – | 22.4 µM |
